In patent EP0429304A2, “Pyridone-carboxylic acid derivatives and their use as veterinary medicines” (SHIONOGI SEIYAKU KABUSHIKI KAISHA trading under the name of …, priority 1989, dated 1991):
Read-outs that look alike come from different tables or passages of the source.

Tests used:
[1] = system: Bordetella bronchiseptica (B.br) ABU-1; test: In vitro sensitivity test (agar dilution method); type: cell-based; details: 37°C, 20 to 24 hours
[2] = system: Escherichia coli (E.coli) JC-2; test: In vitro sensitivity test (agar dilution method); type: cell-based; details: 37°C, 20 to 24 hours
[3] = system: Staphylococcus aureus (S.au) 209P; test: In vitro sensitivity test (agar dilution method); type: cell-based; details: 37°C, 20 to 24 hours
How it was run: (§1)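 Read-out is visual growth after incubation. Conditions were 37°C for 7 days in Frey medium (12 % pig-serum, 0.01 % βNAD; liquid dilution) for MS, and 37°C for 20 to 24 hours on Mueller Hinton agar for S.au. P.pis used 25°C, 40 to 48 hours, on 1.5 % NaCl heart infusion agar.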

[4] = system: Escherichia coli (E.coli) E-17, chicken-origin strain isolated from the field; test: In vitro sensitivity test (agar dilution method); type: cell-based; details: 37°C, 20 to 24 hours
How it was run: as §1

[5] = system: Hemophilus pleuropneumonia (H.pp) M-1; test: In vitro sensitivity test (agar dilution method); type: cell-based; details: 37°C, 20 hours, 10 % CO₂
[6] = system: Hemophilus paragallinarum (H.pg) S-1; test: In vitro sensitivity test (agar dilution method); type: cell-based; details: agar dilution, 37°C, 20 hours, 10 % CO₂
[7] = system: Hemophilus paragallinarum (H.pg) 221; test: In vitro sensitivity test (agar dilution method); type: cell-based; details: agar dilution, 37°C, 20 hours, 10 % CO₂
[8] = system: Salmonella typhimurium (S.typhi) 13311; test: In vitro sensitivity test (agar dilution method); type: cell-based; details: 37°C, 20 to 24 hours
[9] = system: H.pp (otherwise called Actinobacillus pleuropneumoniae) strain M-1; test: Experimental H.pp infection to pig, through injection; type: in vivo; details: injection to thigh muscle one time, Dose 5 mg/kg; dissection 6 days after inoculation
Experimental: In these experiments, the compound (I) was applied to the designated animals by (1) oral administration, (2) incorporation into baits and (3) intramuscular injection, the details of which are explained below.
(3) Preparation of the MG infected fowls was performed in the same manner as in (1) above. Infection of H.pp (otherwise called Actinobacillus pleuropneumoniae) to cause pleuropneumonia in pig was performed by inoculating 5 ml of a fresh cultured strain (i.e. M-1) of H.pp to each nasopharyngeal of some 45 days pigs, each weighing 4 to 9 kg (4 to 5 pigs/group), followed by injection of the test compounds to each thigh muscle at a designated volume one time. Pigs were dissected 6 days after the inoculation. The evaluation of the antimicrobial activity was made by observation of the pneumonia symptomes in air sacs, number of dead body and degree of nodosity in air sacks on dissection.

[10] = system: Pasteurella piscicida (P.pis) No. 2; test: In vitro sensitivity test; type: cell-based; details: 25°C, 40 to 48 hours
How it was run: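 Bacteria were of animal origin. MS strains were grown by liquid dilution in Frey medium with 12 % pig-serum and 0.01 % βNAD at 37°C for 7 days. S.au was tested by agar dilution on Mueller Hinton agar, 37°C for 20 to 24 hours. P.pis was grown on 1.5 % NaCl heart infusion agar at 25°C for 40 to 48 hours.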

[11] = system: Streptococcus sp (Str.sp) SNO6119; test: In vitro sensitivity test; type: cell-based; details: 25°C, 40 to 48 hours
[12] = system: TS-resistant MG; test: Experimental MG infection to chicken, through bait; type: in vivo; details: 9-days chicken; for Number of infected fowl/Number of fowl tested: 6.6 x 10³ CFU/fowl, dissection 6th day after inoculation; for Number of fowl having air sack lesions / Infectious index Left air sack + / Infectious index Left air sack ++ / Infectious index Left air sack +++ / Infectious index Left air sack - / Infectious index Right air sack + / Infectious index Right air sack ++ / Infectious index Right air sack +++ / Infectious index Right air sack -: 1.8 x 10³ CFU/fowl; for Infectious index Left air sack + / Infectious index Left air sack ++ / Infectious index Left air sack +++ / Infectious index Left air sack - / Infectious index Right air sack + / Infectious index Right air sack ++ / Infectious index Right air sack +++ / Infectious index Right air sack -: count of fowl
[13] = system: TS-resistant strain of MG; type: in vivo, chicken; details: 9-days chicken; for Infectious index Left air sack + / Infectious index Left air sack ++ / Infectious index Left air sack +++ / Infectious index Left air sack - / Infectious index Right air sack + / Infectious index Right air sack ++ / Infectious index Right air sack +++ / Infectious index Right air sack -: count of fowl; for Infectious index Left air sack + / Infectious index Left air sack ++ / Infectious index Left air sack +++ / Infectious index Left air sack - / Infectious index Right air sack + / Infectious index Right air sack ++ / Infectious index Right air sack +++ / Infectious index Right air sack - / Number of fowl having air sack lesions: 1.7 x 10³ CFU/fowl; for Number of infected fowl/Number of fowl tested: 3.5 x 10³ CFU/fowl

Cl.Nc1c(F)c(N2C[C@@H]3CC[C@@H](N)[C@@H]3C2)c(F)c2c1c(=O)c(C(=O)O)cn2C1CC1 (relative stereo) [I-16]
0/7: Number of infected fowl/Number of fowl tested ([12]; bait 62.5 ppm/Day) | Number of infected fowl/Number of fowl tested ([12]; bait 125 ppm/Day)
0.025 µg/mL: In vitro Sensitivity Test S.au 209P [3]
0.2 µg/mL: In vitro Sensitivity Test H.pp M-1 [5] | In vitro Sensitivity Test H.pg S-1 [6] | In vitro Sensitivity Test H.pg 221 [7]
0/4: Number of pig having nodi/Number of pig tested [9]
4: Infectious index Left air sack - ([13]; oral 6.25 mg/kg)
5/5: Number of infected fowl/Number of fowl tested ([13]; oral 1.56 mg/kg)
0.025 µg/ml: In vitro Sensitivity Test E.coli E-17 [4]
2/7: Number of infected fowl/Number of fowl tested ([12]; bait 3.13 ppm/Day)
5: Infectious index Left air sack - ([12]; bait 15.6 ppm/Day) | Infectious index Left air sack - ([12]; bait 31.3 ppm/Day) | Infectious index Left air sack - ([12]; bait 62.5 ppm/Day) | Infectious index Right air sack - ([12]; bait 62.5 ppm/Day) | Infectious index Left air sack - ([13]; oral 12.5 mg/kg) | Infectious index Right air sack - ([13]; oral 12.5 mg/kg) | Infectious index Left air sack - ([13]; oral 25.0 mg/kg) | Infectious index Right air sack - ([13]; oral 25.0 mg/kg)
2: Infectious index Right air sack ++ ([12]; bait 15.6 ppm/Day) | Infectious index Right air sack - ([12]; bait 15.6 ppm/Day) | Infectious index Right air sack ++ ([12]; bait 31.3 ppm/Day) | Infectious index Right air sack - ([12]; bait 31.3 ppm/Day)
0.39 µg/mL: In vitro Sensitivity Test P.pis No. 2 [10] | In vitro Sensitivity Test Str.sp SNO6119 [11]
1: Infectious index Right air sack + ([12]; bait 15.6 ppm/Day) | Infectious index Right air sack + ([12]; bait 31.3 ppm/Day) | Infectious index Right air sack - ([13]; oral 6.25 mg/kg)
0.05 µg/mL: In vitro Sensitivity Test E.coli JC-2 [2] | In vitro Sensitivity Test S.typhi 13311 [8]
0: Number of fowl having air sack lesions ([12]; bait 62.5 ppm/Day) | Infectious index Left air sack + ([12]; bait 15.6 ppm/Day) | Infectious index Left air sack ++ ([12]; bait 15.6 ppm/Day) | Infectious index Left air sack +++ ([12]; bait 15.6 ppm/Day) | Infectious index Right air sack +++ ([12]; bait 15.6 ppm/Day) | Infectious index Left air sack + ([12]; bait 31.3 ppm/Day) | Infectious index Left air sack ++ ([12]; bait 31.3 ppm/Day) | Infectious index Left air sack +++ ([12]; bait 31.3 ppm/Day) | Infectious index Right air sack +++ ([12]; bait 31.3 ppm/Day) | Infectious index Left air sack + ([12]; bait 62.5 ppm/Day) | Infectious index Left air sack ++ ([12]; bait 62.5 ppm/Day) | Infectious index Left air sack +++ ([12]; bait 62.5 ppm/Day) | Infectious index Right air sack + ([12]; bait 62.5 ppm/Day) | Infectious index Right air sack ++ ([12]; bait 62.5 ppm/Day) | Infectious index Right air sack +++ ([12]; bait 62.5 ppm/Day) | Infectious index Left air sack + ([13]; oral 6.25 mg/kg) | Infectious index Left air sack ++ ([13]; oral 6.25 mg/kg) | Infectious index Left air sack +++ ([13]; oral 6.25 mg/kg) | Infectious index Right air sack + ([13]; oral 6.25 mg/kg) | Infectious index Right air sack +++ ([13]; oral 6.25 mg/kg) | Infectious index Left air sack + ([13]; oral 12.5 mg/kg) | Infectious index Left air sack ++ ([13]; oral 12.5 mg/kg) | Infectious index Left air sack +++ ([13]; oral 12.5 mg/kg) | Infectious index Right air sack + ([13]; oral 12.5 mg/kg) | Infectious index Right air sack ++ ([13]; oral 12.5 mg/kg) | Infectious index Right air sack +++ ([13]; oral 12.5 mg/kg) | Infectious index Left air sack + ([13]; oral 25.0 mg/kg) | Infectious index Left air sack ++ ([13]; oral 25.0 mg/kg) | Infectious index Left air sack +++ ([13]; oral 25.0 mg/kg) | Infectious index Right air sack + ([13]; oral 25.0 mg/kg) | Infectious index Right air sack ++ ([13]; oral 25.0 mg/kg) | Infectious index Right air sack +++ ([13]; oral 25.0 mg/kg) | Number of fowl having air sack lesions ([13]; oral 12.5 mg/kg) | Number of fowl having air sack lesions ([13]; oral 25.0 mg/kg)
3: Number of fowl having air sack lesions ([12]; bait 15.6 ppm/Day) | Number of fowl having air sack lesions ([12]; bait 31.3 ppm/Day) | Infectious index Right air sack ++ ([13]; oral 6.25 mg/kg) | Number of fowl having air sack lesions ([13]; oral 6.25 mg/kg)
1.56 µg/mL: In vitro Sensitivity Test B.br ABU-1 [1]
2/5: Number of infected fowl/Number of fowl tested ([13]; oral 3.13 mg/kg) | Number of infected fowl/Number of fowl tested ([13]; oral 6.25 mg/kg)
